In assay [1] the test system is S. aureus T28.1 biofilm. Put plainly: Anti-biofilm: biofilm formation on artificial surface. The assay is classed as cell-based, Staphylococcus aureus. How it is done:
(§1) These experiments were inspired and adapted from Liu et al.. They were performed using a 96-well microplate with a flat bottom.
First, the effect of xanthohumol, desmethylxanthohumol and lupulone was assessed on the biofilm formation: 180 µL of BHI medium containing glucose at 10 mg/mL was added to each well of a 96-well microplate with 10 µL of the product previously solubilized in DMSO and 10 µL of a 10^5 CFU/mL bacterial suspension. The maximum concentration in DMSO was 5%. Final concentrations of purified products were from MIC/4 to 4 × MIC. After 24 h incubation at 37 °C, wells were voided and washed 3 times with phosphate buffered saline solution (PBS, Sigma-Aldrich, Saint-Quentin Fallavier, France). Plates were then dried and 150 µL of crystal violet solution at 20 mg/mL in MeOH (Sigma-Aldrich®, Saint-Quentin Fallavier, France) were added for 15 min. After removing crystal violet, 150 µL of EtOH were added to solubilize crystal violet present in adherent bacteria. The optical density was read at 570 nm.

For assay [2], the system named is S. aureus T28.1 biofilm. Put plainly: Anti-biofilm: destruction of preformed biofilm on artificial surface. The class given is cell-based, Staphylococcus aureus. The protocol: as §1
The effect was also evaluated after the biofilm formation in order to evaluate if the hop phenolic compounds are able to destroy it. A first culture of 24 h at 37 °C with 190 µL of BHI medium and 10 µL of a 10^5 CFU/mL bacterial suspension allowed producing the biofilm. Wells were voided and washed with PBS. The biofilm was then treated with xanthohumol, desmethylxanthohumol or lupulone diluted at 5% in the BHI medium to obtain a final volume of 200 µL. Plates were incubated for 24 h at 37 °C, then voided and colored with crystal violet as above.

Another assay has as its system S. aureus T28.1. Put plainly: Post-antibiotic effect (PAE). The conditions noted are these: for Maximum Growth Retardation: 2 h exposure. The assay is classed as cell-based, Staphylococcus aureus. The protocol:
This method allows quantifying the delayed regrowth of a bacterial population following exposure to an active compound [76]. Stock solutions of xanthohumol, desmethylxanthohumol and lupulone were prepared in DMSO 20 times more concentrated than the desired final concentrations (MIC/4 to 4 × MIC). A 2 h pre-treatment with purified prenylated compounds was performed using 8.5 mL of BHI medium, 0.5 mL of purified product in DMSO and 1 mL of a bacterial suspension at 10^5 CFU/mL, incubated at 37 °C. […] The hop compound was then inactivated by a 1000-fold dilution. After inactivation, a growth curve was performed with counts at 30 min and every 2 h. The growth lag was quantified by comparison with the control, using the following formula: PAE=T−C
T is the time needed for the bacterial population to grow by 1 log(CFU/mL) at the given concentration, C is the corresponding time for the control (Figure 5)

The subject of a further assay is S. aureus T26A4 (MSSA). The experiment in a line: Broth microdilution MIC. The class given is cell-based, Staphylococcus aureus. The conditions noted are these: S. aureus T26A4 (MSSA). The protocol:
(§2) The protocol employed was inspired by Abedini et al. with some modifications. Products were solubilized in DMSO and serially diluted two-fold in MH medium. A bacterial suspension at 10^5 CFU/mL was added to obtain a final volume of 200 µL. Final phenolic product concentrations in wells ranged from 625 to 2.4 µg/mL (exception for lupulone for which dilutions were continued until 0.3 µg/mL). […] Plates were incubated overnight with stirring (60 rpm) at 37 °C.

The next assay relates to S. aureus T25.10 (MRSA). The experiment in a line: Broth microdilution MIC. The class given is cell-based, Staphylococcus aureus. Conditions: S. aureus T25.10 (MRSA). How it is done: as §2
In general terms: Broth dilution looks for growth in wells or tubes with falling amounts of substance.

The next assay concerns S. aureus 08143 (MSSA). The experiment in a line: Broth microdilution MIC. The class given is cell-based, Staphylococcus aureus. The conditions noted are these: S. aureus 08143 (MSSA). The protocol: as §2
The subject of assay [3] is Trypanosoma brucei brucei (Tbb). The experiment in a line: Antiparasitic activity, broth microdilution. The class given is cell-based. The protocol:
(§3) Tbb were cultivated in HMI9 medium containing 10% heat-inactivated foetal bovine serum (FBS) (Sigma-Aldrich), […] L-cysteine and […] beta-mercaptoethanol at 37 °C (CO2 5%). Lmm (MHOM/BZ/84/BEL46) were cultivated in SDM-79 medium (Gibco) supplemented with 15% heat-inactivated FBS (Sigma-Aldrich) and 5 mg/L hemin at 28 °C (CO2 5%). Antiparasitic bioassays were performed as described by Bero et al.. Suramin (SUR) and pentamidine (PEN) were used as positive controls respectively. The hops compounds (xanthohumol, desmethylxanthohumol, humulone, lupulone) concentration that inhibits 50% of the cell viability (IC50) was determined using GraphPad Prism, version 5.01 (GraphPad Software, San Diego, CA, USA).

Assay [4] relates to Leishmania mexicana mexicana (Lmm). The experiment in a line: Antiparasitic activity, broth microdilution. The class given is cell-based. How it is done: as §3
For the next assay, the system named is S. aureus T28.1 (MRSA). The experiment in a line: Broth microdilution MIC. The assay is classed as cell-based, Staphylococcus aureus. How it is done:
as §2
For the following experiments, the MRSA strain T28.1, isolated from a pathological sample of osteitis, was used. It was previously characterized by DNA biochips, which allowed highlighting some β-lactamases and the SCC-mec genes confirming the methicillin resistance. Moreover, genes for enzymes and proteins involved in the capsule biosynthesis (capH5, capJ5 and capK5) and several intracellular adhesion proteins implicated in biofilm formation (icaA, icaC and icaD) were present.

The mark [5] stands for this setting: Staphylococcus aureus, read-out: MIC.
Setting [6] is: Staphylococcus aureus, value in parentheses, read-out: MIC.
The mark [7] stands for this setting: Trypanosoma brucei, read-out: IC50 (converted).
Where [8] appears, read: Trypanosoma brucei, value in parentheses, read-out: IC50 (converted).
Where [9] appears, read: Leishmania mexicana, read-out: IC50 (converted).
[10] abbreviates: Leishmania mexicana, value in parentheses, read-out: IC50 (converted).
Where [11] appears, read: Staphylococcus aureus, S. aureus T28.1 (MRSA), read-out: MIC.
The mark [12] stands for this setting: Staphylococcus aureus, S. aureus T28.1 (MRSA), value in parentheses, read-out: MIC.
Where [13] appears, read: value in parentheses, read-out: MIC.
[14] abbreviates: value in parentheses, read-out: IC50 (converted).

Read-outs that look alike come from different tables or passages of the source.

Broadly, the MIC is the least concentration at which growth counts as inhibited. For orientation: IC50 means the concentration that gives 50% inhibition.

As to `CC(C)=CCc1c(O)cc(O)c(C(=O)/C=C/c2ccc(O)cc2)c1O` [DMX, desmethylxanthohumol], the “Biofilm formation on artificial surface” value with S. aureus T28.1 biofilm [1] (sub-inhibitory concentrations) was “significant inhibition”. Also, the Biofilm destruction with S. aureus T28.1 biofilm [2] (MIC/4) came out at 81%. Also, the “Maximum Growth Retardation” value is reported as 2.29 h in the assay on S. aureus T28.1 (2 × MIC), 2.34 h in the assay with S. aureus T28.1 (4 × MIC), 2.10 h with S. aureus T28.1 (MIC/2) and 2.32 h with S. aureus T28.1 (MIC). Moreover, the minimum inhibitory concentration (MIC) with S. aureus T26A4 (MSSA) (setting [5]) worked out at 39 µg/mL; in the assay on S. aureus T26A4 (MSSA) (setting [6]) it was 115 µM; in the assay on S. aureus T25.10 (MRSA) (setting [5]), 19.5 µg/mL; in the assay on S. aureus T25.10 (MRSA) (setting [6]) it was 57.3 µM; in the assay with S. aureus 08143 (MSSA) (setting [5]) it was 39 µg/mL; in the assay on S. aureus 08143 (MSSA) (setting [6]) it was 115 µM. For the same compound, the MIC with S. aureus T28.1 (MRSA) (setting [11]) was 39 µg/mL; with S. aureus T28.1 (MRSA) (setting [12]), 115 µM. Moreover, the half-maximal inhibitory concentration (IC50) is 7.7 ± 0.6 µg/mL in assay [3] (setting [7]), 22.6 µM in [3] (setting [8]), 26.2 ± 1.8 µg/mL in [4] (setting [9]) and 77 µM in [4] (setting [10]).

For the compound `COc1cc(O)c(CC=C(C)C)c(O)c1C(=O)/C=C/c1ccc(O)cc1` [XN, xanthohumol], the “Biofilm formation on artificial surface” value in the assay on S. aureus T28.1 biofilm [1] (at the MIC) is “totally inhibited”. Besides, the “Inhibition of biofilm formation” value in the assay with S. aureus T28.1 biofilm [1] (at the MIC) was about 100%. In the assay on S. aureus T28.1 biofilm [2] (at the MIC and above), the Biofilm destruction result is given as “non-dose-dependent activity”. Further, the “Maximum Growth Retardation” value in the assay on S. aureus T28.1 (2 × MIC) was 2.05 h; in the assay on S. aureus T28.1 (4 × MIC), 3.29 h; in the assay with S. aureus T28.1 (MIC/2) it was 1.34 h; in the assay on S. aureus T28.1 (MIC), 2.23 h. Besides, the MIC in the assay with S. aureus T26A4 (MSSA) (setting [5]) was 9.8 µg/mL; in the assay on S. aureus T26A4 (MSSA) (setting [6]) it was 27.7 µM; in the assay on S. aureus T25.10 (MRSA) (setting [5]), 9.8 µg/mL; in the assay on S. aureus T25.10 (MRSA) (setting [6]), 27.7 µM; in the assay on S. aureus 08143 (MSSA) (setting [5]), 19.5 µg/mL; with S. aureus 08143 (MSSA) (setting [6]) it was 55 µM. Besides, the MIC in the assay with S. aureus T28.1 (MRSA) (setting [11]) is 9.8 µg/mL; with S. aureus T28.1 (MRSA) (setting [12]), 27.7 µM. The half-maximal inhibitory concentration (IC50) in assay [3] (setting [7]) is 2.4 ± 0.2 µg/mL; in assay [3] (setting [8]), 6.8 µM; in assay [4] (setting [9]), 6.1 ± 3.1 µg/mL; in assay [4] (setting [10]), 17.2 µM.

Take lupulone: in the assay on S. aureus T28.1 biofilm [1] (sub-inhibitory concentrations), the “Biofilm formation on artificial surface” value was “significant inhibition”. This compound showed a Biofilm destruction in the assay with S. aureus T28.1 biofilm [2] (MIC/4) of 62.8%. The “Maximum Growth Retardation” value was 0.47 h in the assay with S. aureus T28.1 (4 × MIC), 0.26 h with S. aureus T28.1 (MIC/2) and 0.53 h in the assay on S. aureus T28.1 (MIC). The “Maximum delay after inactivation” value in the assay with S. aureus T28.1 (over all concentrations) is on record as about 55 min. The MIC in the assay on S. aureus T26A4 (MSSA) is 0.6 µg/mL; with S. aureus T26A4 (MSSA) (setting [13]) it was 1.45 µM; against S. aureus T25.10 (MRSA), 0.6 µg/mL; with S. aureus T25.10 (MRSA) (setting [13]) it was 1.45 µM; with S. aureus 08143 (MSSA) it was 1.2 µg/mL; in the assay with S. aureus 08143 (MSSA) (setting [13]), 2.9 µM. The MIC in the assay with S. aureus T28.1 (MRSA) (S. aureus T28.1 (MRSA)) amounted to 1.2 µg/mL; in the assay on S. aureus T28.1 (MRSA) (S. aureus T28.1 (MRSA), value in parentheses, read-out: MIC) it was 2.9 µM; in the assay with S. aureus T28.1 (MRSA) (strain MRSA T28.1) it was 1.2 µg/mL. Besides, the IC50 was 0.9 ± 0.0 µg/mL in [3], 2.2 µM in assay [3] (setting [14]), 4.7 ± 0.1 µg/mL in [4] and 11.3 µM in assay [4] (setting [14]).

(Values after article PMC6472001, “Phenolic Compounds from Humulus lupulus as Natural Antimicrobial Products: New Weapons in the Fight against Methicillin Resistant Staphylococcus aureus, Leishmania mexicana and Trypanosoma brucei Strains” (Molecules, 2019).)
